The text below walks through data of US11345712B2, “Protein-targeting compounds and pharmaceutical compositions thereof, and their therapeutic applications” (BioTheryX, Inc., priority 2019, dated 2022).

SMILES strings stand for the structures. A value given as a limit tells only on which side of the number the result lay.

This assay has as its system MOLM-13 cells. Description: MOLM-13 cell viability assay (CellTiter-Glo). Format: cell-based. To be noted: Homo sapiens, MOLM-13, 72 h, 3 days, concentration of 1 μM, read-out: Antiproliferative Activity (inhibition, MOLM-13 cell viability). How it is done:
MOLM-13 cells were cultured in RPMI 1640 media supplemented with 10% fetal bovine serum, streptomycin, and penicillin. The cells were plated in white walled 96-well plates at 2,500 cells/well. The cells were incubated in DMSO (control) or an indicated compound for 3 days at 37° C. and 5% CO2. Following the incubation period, 100 μL of CELLTITER-GLO® (CTG) reagent was added to each well. Following a 10 minutes incubation with shaking, luminescence was measured using an ENVISION® Multimode plate reader.
As for `CC(c1ccc(C(=O)C(=O)NCc2scc3c2CN(C2CCC(=O)NC2=O)C3=O)cc1)C(F)(F)F` (stereo not shown) [Compound I-36, N-((5-(2,6-dioxopiperidin-3-yl)-4-oxo-5,6-dihydro-4H-thieno[3,4-c]pyrrol-1-yl)methyl)-2-oxo-2-(4-(1,1,1-trifluoropropan-2-yl)phenyl)acetamide], the cytotoxicity at 1 µM fell in the range of 25 to 50%. For the compound `O=C1CCC(N2Cc3c(CNC(=O)C(=O)c4ccccc4)cccc3C2=O)C(=O)N1` (stereo not shown) [Compound I-74, N-((2-(2,6-dioxopiperidin-3-yl)-1-oxoisoindolin-4-yl)methyl)-2-oxo-2-phenylacetamide], the cytotoxicity at 1 µM was below 25%.

On to `CC(C)(C)c1ccc(CS(=O)(=O)NCc2scc3c2CN(C2CCC(=O)NC2=O)C3=O)cc1` (stereo not shown) [II-128, 1-(4-(tert-butyl)phenyl)-N-((5-(2,6-dioxopiperidin-3-yl)-4-oxo-5,6-dihydro-4H-thieno[3,4-c]pyrrol-1-yl)methyl)methanesulfonamide], for which the cytotoxicity at 1 µM is above 80%. Regarding `CC(C)(C)c1ccc(C(=O)C(=O)NCc2csc3c2CN(C2CCC(=O)NC2=O)C3=O)cc1` (stereo not shown) [Compound I-39, 2-(4-(tert-butyl)phenyl)-N-((5-(2,6-dioxopiperidin-3-yl)-6-oxo-5,6-dihydro-4H-thieno[2,3-c]pyrrol-3-yl)methyl)-2-oxoacetamide], the cytotoxicity at 1 µM was above 80%. Consider `O=C1CCC(N2Cc3c(CNC(=O)C(=O)c4cccc(Cl)c4)cccc3C2=O)C(=O)N1` (stereo not shown) [Compound I-88, 2-(3-chlorophenyl)-N-((2-(2,6-dioxopiperidin-3-yl)-1-oxoisoindolin-4-yl)methyl)-2-oxoacetamide], for which the cytotoxicity at 1 µM is below 25%. For `O=C1CCC(N2Cc3cc(CNC(=O)C(=O)c4ccccc4F)ccc3C2=O)C(=O)N1` (stereo not shown) [Compound I-86, N-((2-(2,6-dioxopiperidin-3-yl)-1-oxoisoindolin-5-yl)methyl)-2-oxo-2-(2-fluorophenyl)acetamide], the cytotoxicity at 1 µM lay within 50 to 80%.

In the case of `CC(C)(C)c1ccc(C(=O)C(=O)Nc2cccc3c2CN(C2CCC(=O)NC2=O)C3=O)cc1` (stereo not shown) [Compound I-56, 2-(4-(tert-butyl)phenyl)-N-(2-(2,6-dioxopiperidin-3-yl)-1-oxoisoindolin-4-yl)-2-oxoacetamide], the cytotoxicity at 1 µM was below 25%. Turning to `CN(C)c1ccc(CCCC(=O)NCc2scc3c2CN(C2CCC(=O)NC2=O)C3=O)cc1` (stereo not shown) [II-85, 4-(4-(dimethylamino)phenyl)-N-((5-(2,6-dioxopiperidin-3-yl)-4-oxo-5,6-dihydro-4H-thieno[3,4-c]pyrrol-1-yl)methyl)butanamide], the cytotoxicity at 1 µM was below 25%.

Take `Cc1ccc(C(N)C(=O)NCc2scc3c2CN(C2CCC(=O)NC2=O)C3=O)cc1` (stereo not shown) [II-88, 2-amino-N-((5-(2,6-dioxopiperidin-3-yl)-4-oxo-5,6-dihydro-4H-thieno[3,4-c]pyrrol-1-yl)methyl)-2-(p-tolyl)acetamide]: the cytotoxicity at 1 µM was below 25%. For `Cc1cc(C(C)(C)C)cc(C)c1C(=O)C(=O)NCc1cccc2c1CN(C1CCC(=O)NC1=O)C2=O` (stereo not shown) [Compound I-105, 2-(4-(tert-butyl)-2,6-dimethylphenyl)-N-((2-(2,6-dioxopiperidin-3-yl)-1-oxoisoindolin-4-yl)methyl)-2-oxoacetamide], the cytotoxicity at 1 µM is below 25%. With `Cc1ccc(NC(=O)NCc2cc3c(s2)C(=O)N(C2CC(=O)NC2=O)C3)cc1Cl` (stereo not shown) [II-72, 1-(3-chloro-4-methylphenyl)-3-((5-(2,5-dioxopyrrolidin-3-yl)-6-oxo-5,6-dihydro-4H-thieno[2,3-c]pyrrol-2-yl)methyl)urea], the cytotoxicity at 1 µM was 25 to 50%. `CC(C)c1ccc(C(=O)C(=O)NCc2ccc3c(c2)CN(C2CCC(=O)NC2=O)C3=O)s1` (stereo not shown) [Compound I-37, N-((2-(2,6-dioxopiperidin-3-yl)-1-oxoisoindolin-5-yl)methyl)-2-(5-isopropylthiophen-2-yl)-2-oxoacetamide]: the cytotoxicity at 1 µM is above 80%.

As for `COc1cccc(C(=O)C(=O)NCc2ccc3c(c2)CN(C2CCC(=O)NC2=O)C3=O)c1` (stereo not shown) [Compound I-95, N-((2-(2,6-dioxopiperidin-3-yl)-1-oxoisoindolin-5-yl)methyl)-2-(3-methoxyphenyl)-2-oxoacetamide], the cytotoxicity at 1 µM was above 80%. `O=C1CCC(N2Cc3c(CNC(=O)C(=O)c4ccccc4F)cccc3C2=O)C(=O)N1` (stereo not shown) [Compound I-82, 2-(2-fluorophenyl)-N-((2-(2,6-dioxopiperidin-3-yl)-1-oxoisoindolin-4-yl)methyl)-2-oxoacetamide]: the cytotoxicity at 1 µM lay in the range of 25 to 50%. For `O=C1CCC(N2Cc3c(csc3CNC(=S)Nc3c(Cl)c(Cl)cc(Cl)c3Cl)C2=O)C(=O)N1` (stereo not shown) [II-123, 1-((5-(2,6-dioxopiperidin-3-yl)-4-oxo-5,6-dihydro-4H-thieno[3,4-c]pyrrol-1-yl)methyl)-3-(2,3,5,6-tetrachlorophenyl)thiourea], the cytotoxicity at 1 µM was below 25%.

In the case of `Cc1ccc(C(=O)C(=O)NCc2ccc3c(c2)CN(C2CCC(=O)NC2=O)C3=O)cc1Cl` (stereo not shown) [Compound I-53, 2-(3-chloro-4-methylphenyl)-N-((2-(2,6-dioxopiperidin-3-yl)-1-oxoisoindolin-5-yl)methyl)-2-oxoacetamide], the cytotoxicity at 1 µM is above 80%. For the compound `CC(C)(C)C1CCC(C(=O)C(=O)NCc2cccc3c2CN(C2CCC(=O)NC2=O)C3=O)CC1` (stereo not shown) [Compound I-67, 2-(4-(tert-butyl)cyclohexyl)-N-((2-(2,6-dioxopiperidin-3-yl)-1-oxoisoindolin-4-yl)methyl)-2-oxoacetamide], the cytotoxicity at 1 µM lay within 25 to 50%.

Turning to `O=C1CCC(N2Cc3c(NC(=O)C(=O)c4ccc(C5(C(F)(F)F)CC5)cc4)cccc3C2=O)C(=O)N1` (stereo not shown) [Compound I-57, N-(2-(2,6-dioxopiperidin-3-yl)-1-oxoisoindolin-4-yl)-2-oxo-2-(4-(1-(trifluoromethyl)cyclopropyl)phenyl)acetamide], the cytotoxicity at 1 µM was below 25%. As for `CC(C)(C)c1ccc(C(=O)C(=O)NCc2cc(F)cc3c2CN(C2CCC(=O)NC2=O)C3=O)cc1` (stereo not shown) [Compound I-29, 2-(4-(tert-butyl)phenyl)-N-((2-(2,6-dioxopiperidin-3-yl)-6-fluoro-1-oxoisoindolin-4-yl)methyl)-2-oxoacetamide], the cytotoxicity at 1 µM was above 80%. For `CC(C)(C)c1ccc(C(=O)C(=O)NCc2cccc3c2CN(C2CCC(=O)NC2=O)C3=O)cc1` (stereo not shown) [Compound I-28, 2-(4-(tert-butyl)phenyl)-N-((2-(2,6-dioxopiperidin-3-yl)-1-oxoisoindolin-4-yl)methyl)-2-oxoacetamide] the value was above 80%; for `CCN(CC)c1cc(NC(=O)NCc2cc3c(s2)C(=O)N(C2CCC(=O)NC2=O)C3)ccc1F` (stereo not shown) [II-97, 1-(3-(diethylamino)-4-fluorophenyl)-3-((5-(2,6-dioxopiperidin-3-yl)-6-oxo-5,6-dihydro-4H-thieno[2,3-c]pyrrol-2-yl)methyl)urea], above 80%; for `Cc1ccc(NC(=O)NCc2cc3c(s2)C(=O)N(C2CCC(=O)N(COP(=O)(OC(C)(C)C)OC(C)(C)C)C2=O)C3)cc1N(C)C` (stereo not shown) [II-105, di-tert-butyl ((3-(2-((3-(3-(dimethylamino)-4-methylphenyl)ureido)-methyl)-6-oxo-4,6-dihydro-5H-thieno[2,3-c]pyrrol-5-yl)-2,6-dioxopiperidin-1-yl)methyl) phosphate], below 25%.
